Test results published in paper PMC7070709, “Design, Synthesis, and In Vitro Evaluation of Hydroxybenzimidazole-Donepezil Analogues as Multitarget-Directed Ligands for the Treatment of Alzheimer’s Disease” (Molecules, 2020).

Key:
[1] = molecular target: T1, AChE (type VI-S, from electric eel) (Electrophorus electricus, UniProt O42275); conditions: read-out: TcAChE Inhibition IC50; cited from earlier work
T1 construct: purchased type VI-S

Aβ1–42 with Cu(II) [2] = molecular target: T2, Aβ1–42 with Cu(II) (Homo sapiens, UniProt P05067); design: method as in PMID 32171933; conditions: copper 40 µM; footnote e; cited from earlier work
T2 construct: Aβ1–42 (40 μM) was incubated at 37 °C, for 24 h with or without Cu(II) (40 μM)

[3] = pH 7.4, CL/CM = 10, CM = 10^−6 M; cited from earlier work
[4] = Cu(II) chelation by potentiometry; type: physicochemical; conditions: pH 7.4; read-out: conditional dissociation constant (K´d) for the copper complex
Text: The metal chelating ability of hybrids 7 and 12, due to the BIM bidentate unity with (N,O) coordination mode, was studied by potentiometry. Figure 3A,B show a change in the deprotonation profile of the ligand titration curves due to the presence of the metal ions. In fact, the curves for the Cu(II)/L systems lie well below that of the ligand, while for the Zn(II)/L systems stay under for a > −1 (compound 7) or a > 0 (compound 12), thus supporting the formation of 1:1 and 1:2 M/L ratio complexes with the deprotonated and mono-protonated forms of the ligand and with relative metal dependent stability order (Cu > Zn). Table 1 contains the equilibrium models obtained from the fitting analysis of the potentiometric curves by program Hyperquad. In these equilibrium models, which the coordination core of the compounds integrates the bidentate (N,O) BIM moiety, MHL and MH2L2 correspond to species with the ligand containing one protonated nitrogen atom at the piperazine moiety, ML and ML2 correspond to complexes involving the completely deprotonated form of the ligand while MH-1L2 are mixed ligand-hydroxo metal complexes.
Solutions: the aqueous copper (CuCl2, 0.015 M) and zinc (ZnCl2, 0.0156 M) stock solutions for potentiometric equilibrium studies were prepared from 1000 ppm standards (Titrisol) and their metal content was evaluated by atomic absorption. The titrant solution (0.1 M KOH) was obtained from a carbonate-free commercial concentrate (Titrisol) and standardized by potentiometric titration with potassium hydrogen phthalate. The titrant solution was discarded whenever the percentage of carbonate (Gran’s method) was about 0.5% of the total amount of base.
Measurements: compounds 7 and 12 were titrated in 50% (w/w) DMSO/H2O medium, at T = 25.0 ± 0.1 °C and ionic strength (I) 0.1 M KCl, using 0.1 M KOH as titrant. Both glass and Ag/AgCl reference electrodes were previously conditioned in DMSO/H2O mixtures with increasing amounts of DMSO and the response of the glass electrode was controlled by strong acid–strong base (HCl/KOH) calibrations with the determination of the Nernst parameters by Gran’s method. […] All titrations were performed in duplicate and under the stated experimental conditions the pKw value (13.6) was determined and subsequently used in the computations. The stepwise protonation constant of the ligand, Ki = [HiL]/([Hi–1L][H]), and the overall metal–complex stability constants, βMmHhLl = [MmHhLl]/([M]^m[H]^h[L]^l), were calculated by fitting the potentiometric titration data with Hyperquad 2008 [26]. The metal hydrolysis constants were determined under the defined experimental conditions (I = 0.1 M KCl, 50% w/w DMSO/H2O, T = 25.0 ± 0.1 °C) and the following values of stability constants were included in the fitting of experimental data towards the equilibrium models related to the Cu^2+/L and Zn^2+/L systems: log βCu2H−2 = −9.99; log βZnH−2 = −14.79, log βZnH−3 = −23.48. Species distribution curves were plotted with the Hyss program.

Aβ1–42 with Cu(II) [5] = molecular target: T2, Aβ1–42 with Cu(II); assay: Inhibition of Cu-induced Aβ1–42 aggregation (thioflavin T fluorescence); type: biochemical
Protocol: The anti-amyloidogenic capacity of the compounds was also evaluated in vitro, in the absence and presence of Cu(II), based on the measurement of the fluorescence emission of Thioflavin T (ThT), a stain known by its Aβ fibril binding capacity. This binding interaction can be analyzed by fluorimetry, since the presence of ThT-fibrils increases the absorbance and the emission of the ThT dye, and it also induces red shifts on the absorbance (from 385 to 446 nm) and emission peaks (from 445 to 485 nm). All the measurements were performed after incubation (24 h, 37 °C) of the self-mediated and Cu^2+-induced Aβ aggregates in the presence/absence of the compounds under evaluation.
Herein, due to solubility problems of some compounds in the phosphate buffer (0.215 M, pH 8.0) of the working medium, the assays were carried out in the presence of 40 μM concentration of inhibitor and 20 μM in the case of compound 4, instead of 80 μM as previously reported. […] The activity dependence on ligand structural features may be mainly explained by the different ability for intercalation into the fibrils, as already assumed for other inhibitors. […] The data obtained for compounds 6 and 7 indicate that the presence of R1 = F, -NO2 substituents in the BIM have some small positive effect on the inhibition of Aβ aggregation.
The Aβ peptide was treated with 1,1,1,3,3,3-hexafluoropropan-2-ol (HFIP) and dissolved in a CH3CN/Na2CO3 (300 μM)/NaOH (250 μM) (48.3:48.3:4.3, v/v/v) mixture in order to have a stable stock solution, avoiding self-aggregation of Aβ1–42. Then, the prepared 500 μM solution was diluted at 40 μM in phosphate buffer (0.215 M, pH 8.0).
The solutions of the tested compounds were prepared in MeOH (1 mg/mL), being further diluted in phosphate buffer to a concentration of 480 μM. For copper-induced aggregation studies, a solution of CuCl2 240 μM was prepared from a stock standard solution (0.015 M). To perform the assays for the Aβ1–42 aggregation inhibition, a reported method, based on the fluorescence emission of thioflavin T (ThT), was followed. Aβ1–42 (40 μM) was incubated at 37 °C, for 24 h with or without Cu(II) (40 μM) in a phosphate buffer in presence or absence of the single ligand (40 μM and 20 μM for compound 4). Then, the samples were added to a 96-well plate with […] of 5 μM ThT in 50 mM glycine-NaOH (pH 8.5) buffer. Blank samples were prepared without the peptide for each concentration. The ThT fluorescence was measured at 446 nm (excitation) and 485 nm (emission). The inhibition percentage of aggregation was calculated by Equation (2), in which IFi and IF0 corresponded to the fluorescence intensities, in the presence and in the absence of the tested compound, subtracted of the fluorescence intensities due to the respective blanks.
The reported values were obtained as the mean ± SEM of duplicate of three different experiments.

[6] = 50% w/w DMSO/water, I = 0.1 M KCl, 25.0 °C; cited from earlier work
Aβ1–42 = molecular target: T3, Aβ1–42 (Homo sapiens, UniProt P05067); design: method as in PMID 32171933; conditions: footnote e; cited from earlier work
T3 construct: Aβ1–42 (40 μM) was incubated at 37 °C, for 24 h with or without Cu(II) (40 μM)

[7] = pH 7.4, CL/CM = 10, CM = 10^−6 M; cited from earlier work; remark: listed apart in the source

T2 sequence (P05067 672-713): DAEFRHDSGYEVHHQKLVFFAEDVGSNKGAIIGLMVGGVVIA
T1 sequence (O42275 24-633): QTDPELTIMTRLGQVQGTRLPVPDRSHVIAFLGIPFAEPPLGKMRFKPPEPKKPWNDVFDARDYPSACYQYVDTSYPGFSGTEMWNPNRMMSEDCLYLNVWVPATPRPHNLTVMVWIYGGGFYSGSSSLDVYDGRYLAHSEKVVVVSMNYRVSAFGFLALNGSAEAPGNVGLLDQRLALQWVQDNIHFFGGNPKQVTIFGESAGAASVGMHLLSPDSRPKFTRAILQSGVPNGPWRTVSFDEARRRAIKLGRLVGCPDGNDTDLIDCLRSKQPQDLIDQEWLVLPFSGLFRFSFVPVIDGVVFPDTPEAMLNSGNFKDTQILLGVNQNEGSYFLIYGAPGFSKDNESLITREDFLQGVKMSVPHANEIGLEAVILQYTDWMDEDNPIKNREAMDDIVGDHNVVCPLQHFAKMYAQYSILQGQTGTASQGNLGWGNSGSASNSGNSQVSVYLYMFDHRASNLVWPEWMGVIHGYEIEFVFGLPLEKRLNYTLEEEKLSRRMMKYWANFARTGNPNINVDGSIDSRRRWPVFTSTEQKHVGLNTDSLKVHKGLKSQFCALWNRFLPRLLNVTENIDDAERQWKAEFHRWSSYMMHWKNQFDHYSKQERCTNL
T3 sequence (P05067 672-713): as the sequence (P05067 672-713) above

## O=C(NCC1CCN(Cc2ccccc2)CC1)c1cccc2[nH]c(-c3ccccc3O)nc12 [Compound 5]
[1]
  IC50: 9 ± 1 µM
Aβ1–42 with Cu(II) [2]
  Aβ1–42 Aggregation Inhibition, Cu-Induced: 58.9 ^e %
[3]
  pCu (pM = −log[M]): 14.3
[4]
  Kd: 0.000254 µM
Aβ1–42 with Cu(II) [5]
  increase on Cu-induced Aβ aggregation (inhibition) relative to the self-induced one: more than 50%
[6]
  log K1, stepwise protonation constant (011): 8.98(2)
  log K2, stepwise protonation constant (021): 7.78(4)
  log K3, stepwise protonation constant (031): 2.86(5)
Aβ1–42
  Aβ1–42 Aggregation Inhibition, Self-Induced: 38.6 ^e %
[7]
  pZn (pM = −log[M]): 6.4
